Measurements: patent publication US8309068B2, “Isolated polypeptides and methods of improving muscle strength” (Myostin Therapeutics Pty Ltd., priority 2006, dated 2012)
Where no end group is shown, it is not given here.

Columns and labels:
[1] = tested on: Human skeletal muscle myoblasts; test: Human myoblast proliferation assay; type: cell-based; details: 1, 5 or 10 μg/ml; 144 hours
Experimental: (§1) Human skeletal muscle myoblasts (Cambrex, USA) or primary ovine myoblasts were grown in Dulbecco's Modified Eagle Medium containing 20% FBS, 10% Horse serum and 0.5% chicken embryo extract according to the standard techniques. The myoblast proliferation assay was carried out in uncoated 96-well microtitre plates. Cell cultures were seeded at 2000 cells/well. Following a 24-hour attachment period, test media supplemented with 5% FCS containing either buffer as a control or different myostatin antagonists (300, 310 or 320) were added at 1, 5 and 10 μg/ml and cells were incubated for a further 144 hour period (for human cells) or 48 hours (for ovine cells). After the incubation period, proliferation was assessed using methylene blue photometric endpoint assay as previously described (Thomas et al, 2000).

[2] = tested on: bone marrow derived macrophages; test: Migration of bone marrow derived macrophages from mice treated in vivo; details: 6 μg/g BW SC three times a week for six weeks; ZAMS 11%, 22% or 33%; vs saline
Source text: For chemotaxis analysis of macrophages bone marrow was isolated from saline treated (control) and myostatin antagonist 300 treated mice (as described in example 4, below), and plated at 5×10^6 cells/plate in DMEM 10% FBS plus 10% L929 conditioned medium (containing CSF-1) for 5 days to induce macrophage differentiation. The macrophages were then harvested and used in the assay. Three concentrations of DMEM containing Zymosan-activated mouse serum (ZAMS) was used, 33% (optimum chemo-attractant concentration), 22% and 11% (suboptimal chemo-attractant concentrations). Plain DMEM was used as negative control. On a 24-well plate, the bottom wells were filled with test or control media. Seventy-five thousand cells were added to the top wells containing polyethylene terephthalate (PET) 0.8 μm membranes. The plate was incubated for 4h at 37° C., 5% CO2. […] The membrane was then fixed, stained in Gill's hematoxylin and wet mounted on slides. Migrated cells were counted on four representative fields per membrane and the average number plotted.
An animal trial was conducted to assess the effects of myostatin antagonist 300 in improving muscle function. Sixteen month old mice were divided into two groups of ten. […] The functional improvement of sarcopenic muscle was assessed by measuring grip strength of mice at the end of trial. Grip strength was measured in Newtons.

primary ovine myoblasts = test: Ovine myoblast proliferation assay; type: cell-based; details: 1, 5 or 10 μg/ml; 48 hours
Experimental: as §1

satellite cells [3] = test: Satellite cell activation on single fibres from mice treated in vivo; details: 6 μg/g BW SC three times a week for six weeks; end of treatment
Experimental: To test the effect of short term myostatin antagonist treatment on satellite cell activation, single fibres were isolated from mice from each treatment group (as described in example 4, below), and cultured as described above. Satellite cell activation was investigated using anti-PCNA antibodies as described.
(§2) An animal trial was conducted to assess the effects of myostatin antagonist 300 in improving muscle function. Sixteen month old mice were divided into two groups of ten. While the control group received saline subcutaneous (SC) injections, the other group received myostatin antagonist 300 SC at 6 μg/gram of BW three times a week for six weeks. The functional improvement of sarcopenic muscle was assessed by measuring grip strength of mice at the end of trial. Grip strength was measured in Newtons.

Sixteen month old mice = test: In vivo trial in sixteen month old mice (sarcopenic muscle, grip strength)
Experimental: as §2

satellite cells [4] = test: Single muscle fibre satellite cell activation assay (PCNA labeling); type: cell-based, mice
Experimental: Single fibres were isolated as previously described Rosenblatt et al., (1995). Briefly, 1 and 24 month old wild-type mice were euthanized by CO2 gas followed by cervical dislocation. TA were dissected out and digested in 0.2% (w/v) type 1A collagenase (>260 CDU/mg, Sigma) in Dulbecco's modified Eagle medium (DMEM) (Invitrogen) for 60 minutes at 37° C. Muscles were transferred to DMEM +10% horse serum (HS) +0.5% chicken embryo extract (CEE) and fibres were separated by gentle trituration. Isolated fibres were transferred to 4 well chamber slides (Becton Dickinson) coated with 10% matrigel (Becton Dickinson) and fixed with 100% ice cold methanol for 10 minutes after culturing up to 72 hours at 37° C. in 5% CO2.
Proliferating Cell Nuclear Antigen (PCNA) is expressed in cells that are actively undergoing cell cycle but not in quiescent cells. […] However, upon activation, satellite cells are activated to express PCNA and regenerate the muscle by replenishing the muscle fibres. Thus PCNA is a very reliable antigen to marker for the activated satellite cells.
In order to determine the effect of myostatin antagonists on satellite cell activation, single muscle fibres from TA muscle of young (1 month) or old (24 month) wild type mice were cultured in presence of 5 μg/ml of myostatin antagonist 320, 310 or 300, in culture media for 24, 48 and 72 hours and fixed with methanol and washed in PBS. The fixed fibres were permeabilised in 0.5% TritonX-100 in PBS for 10 minutes, blocked in 10% normal goat serum and 0.35% carrageenan lambda in PBS for 30 minutes at room temperature then incubated with a 1:100 dilution of anti-PCNA antibody in blocker overnight. Primary antibody was detected using goat anti-mouse-alexa fluor 546 and fibres were counterstained with DAPI. PCNA positive activated satellite cells were counted under microscope and expressed as a percent of total myonuclei.

C2C12 myoblasts = test: C2C12 myoblast proliferation assay (methylene blue endpoint); type: cell-based, murine
Experimental: A polypeptide of the invention, or a fragment, variant or derivative thereof has the biological function of antagonising myostatin activity. To determine whether a polypeptide of the invention, or a fragment, variant or derivative thereof, is able to antagonise myostatin activity, such activity can be tested by growing myoblasts in the presence or absence (control) of a candidate polypeptide of the invention. […]
The myoblast proliferation assay was carried out in uncoated 96-well microtitre plates. C2C12 cultures were seeded at 1000 cells/well. Following a 16-hour attachment period, test media containing either recombinant wild type myostatin or different myostatin antagonists were added and cells were incubated for a further 48 or 72 hour period. For competition assay, wild type myostatin was competed with different concentrations of myostatin antagonists prior to the addition into the media. After the incubation period, proliferation was assessed using methylene blue photometric endpoint assay as previously described (Thomas et al, 2000).

Wild type mice = test: In vivo sarcopenia trial, 10 month administration in wild type mice
Experimental: Wild type mice (32 mice approx. 4-5 months of age) were injected subcutaneously fortnightly or monthly with 300 (6 μg/g body weight) or saline for a period of 10 month. Muscle strength was assessed using a grip strength apparatus (MK-380S, Muromachi; Tokyo, Japan) at the end of the trial. The maximum force exerted by a mouse while being pulled backward by the tail is recorded in Newtons. The mean of three grip tests for each mouse was calculated and the mean maximal force per group was determined.

## myostatin antagonist 300: recombinant peptide, amino acids 267-300 of bovine myostatin, with N terminal and C terminal tag (SEQ ID NO: 6) (DFGLDCDEHSTESRCCRYPLTVDFEAFGWDWIIA; cysteine pairing not given here; also: N- and C-terminal tags; listed as Homo sapiens)
[1]
  proliferation capacity of human myoblasts compared to control: significantly enhanced
[2]
  migratory ability of macrophages isolated from treated mice: significantly increased
Primary ovine myoblasts
  proliferation capacity of ovine myoblasts compared to control: significantly enhanced
Satellite cells [3]
  satellite cell activation in fibres isolated from treated mice: increase observed
Sixteen month old mice; 16 month old mice, 6 week treatment, observation, result not shown
  body fat compared with saline treated controls: reduced the amount of subcutaneous fat including the inguinal fat pad
Sixteen month old mice; aged mice, 6 μg/g BW SC three times a week, six week period
  average percent change in grip strength: highly significant increase
Sixteen month old mice; aged mice, day 0 and day 42, 6 μg/g BW SC three times a week
  grip strength at the beginning and end of the trial: significantly increased
Satellite cells [4]; single fibres from old (2 year old) mice, 5 μg/ml, 24 or 48 hours
  percentage of activated satellite cells: Significant increases
Satellite cells [4]; single fibres from old (2 year old) mice, after 48 hours
  percentage of activated satellite cells, comparison among antagonists and times: greatest increase
Satellite cells [4]; single fibres from young (1 month old) wild type mice, 5 μg/ml, 24 or 48 hours
  number of satellite cells activated (PCNA positive nuclei): significant increase
C2C12 myoblasts; 1 μg/ml or 5 μg/ml over 48 or 72 hours
  proliferation capacity of myoblasts compared to control: significantly enhanced
C2C12 myoblasts; 48 hour time point
  concentration at which the highest myoblast proliferation rate was observed: 5 µg/mL
Wild type mice; 6 μg/g SC fortnightly for 10 month, data not shown
  increase of muscle function, fortnightly compared with monthly application: equally effective
Wild type mice; 6 μg/g SC monthly for 10 month, p<0.01
  grip strength over saline control at the end of the trial: significant increase
